Tested on: yeast genes (level of expressed mRNA)
Assay: DNA chip analysis of expressed mRNA of yeast genes after 2 h culture with a toxic chemical substance
Type: cell-based, Saccharomyces cerevisiae S288C
Description: Yeast (Saccharomyces cerevtisiae S288C (α SUC2mal mel gap2 CUP1)) were cultured at 25° C. on YPD medium (yeast extract 1%, polypepton 2%, glucose 2%). One of toxic chemical substances was added to the cell at logarithmic growth phase, and the cell was further cultured for two hours. Cell was cultured without any chemical substance in the same condition, and was used as control. Concentrations of the chemical substances were defined to inhibit the growth of the yeast but not lead to death.
After the completion of cultivation, the culture was centrifuged to collect the cells. To the cells, sodium acetate buffer (50 mM sodium acetate, 10 mM EDTA, 1% SDS) was added, and the mixture was shaken at 65° C. for five minutes, followed by returning to room temperature, and obtaining the supernatant, which procedure was repeated two times. To the supernatant, ½ amount of a solution of phenol/chloroform was added, and the mixture was centrifuged to give a supernatant, which was added with an equal amount of chloroform, and the mixture was centrifuged to give a supernatant. To the supernatant, an equal amount of isopropanol containing 0.3 M sodium acetate was added, and the mixture was allowed to stand at room temperature for 30 minutes, after which the mixture was centrifuged to give a sediment of the whole RNAs. Seventy % ethanol was added to the sediment, and the mixture was again centrifuged to give a sediment, which was then dried and dissolved in water. mRNA was isolated from the whole RNAs as followings. In view of the fact that a poly A chain is attached to the 3′ terminus of mRNA, a polynucleotide having a poly T structure which was immobilized on the surface of latex beads was used to trap the mRNA, and then the mRNA was washed and eluted with spine column (Oligotex-dT30<Super>mRNA Purification Kit, Takara). Reverse transcription of the mRNA was conducted with a reverse transcriptase (Super Script II Reverse Transcriptase; catalogue No. 18064-014, GibcoBRL) using fluorescence-labeled nucleotides to give cDNAs that were introduced with Cy3-dUTP or Cy5-dUTP during the reverse transcription.
The labeled cDNAs were dissolved in TE buffer (10 mM Tris-HCl/1 mM EDTA, pH8.0), and the solution was dropped on the DNA chip containing the whole genes of yeast (DNA Chip Research Inc. Japan) so that the cDNAs were hybridized on the DNA chip at 65° C. for over 12 hours. The fluoresces intensity of the DNA chip was read with a scanner, and the ratio relative to the fluorescence intensity resulting from the absence of chemical substance was estimated as the following, which is shown in Tables 1 to 9: [formula]
In the Tables, “Intensity” indicated in the rightmost column is a value of the level of expressed mRNA of each gene in control cells as divided by the average level of the expressions of the whole genes.

manganese ethylenebis(dithiocarbamate) [(8)]
2.2: The level of expressed mRNA in the presence of chemical substance/The level of expressed mRNA in the absence of chemical substance (yeast gene YLR327C)
1.0: The level of expressed mRNA in the presence of chemical substance/ (yeast gene YKL151C, ratio to control without chemical substance, 2 h culture) | The level of expressed mRNA in the presence of chemical substance/ (yeast gene YLR194C, ratio to control without chemical) | The level of expressed mRNA in the presence of chemical substance/ (yeast gene YLR324W, ratio to control without chemical substance, 2 h culture) | The level of expressed mRNA in the presence of chemical substance/ (yeast gene YLR350W, ratio to control without chemical substance, 2 h culture) | The level of expressed mRNA in the presence of chemical substance/in the absence of chemical substance (yeast gene YLR375W) | The level of expressed mRNA in the presence of chemical substance/The level of expressed mRNA in the absence of chemical substance (yeast gene YLR429W) | The level of expressed mRNA in the presence of chemical substance/The level of expressed mRNA in the absence of chemical substance (yeast gene YMR004W) | The level of expressed mRNA in the presence of chemical substance/The level of expressed mRNA in the absence of chemical substance (yeast gene YMR094W) | The level of expressed mRNA in the presence of chemical substance/ (yeast gene YMR102C, ratio to control without chemical substance, 2 h culture) | The level of expressed mRNA in the presence of chemical substance/in the absence of chemical substance (yeast gene YMR293C) | The level of expressed mRNA in the presence of chemical substance/ (yeast gene YMR295C, ratio to control without chemical substance, 2 h culture)
8.1: The level of expressed mRNA in the presence of chemical substance/ (yeast gene YLR460C, ratio to control without chemical substance, 2 h culture)
3.9: The level of expressed mRNA in the presence of chemical substance/ (yeast gene YMR090W, ratio to control without chemical substance, 2 h culture)
0.5: The level of expressed mRNA in the presence of chemical substance/The level of expressed mRNA in the absence of chemical substance (yeast gene YKL096W)
1.3: The level of expressed mRNA in the presence of chemical substance/ (yeast gene YKR091W, ratio to control without chemical) | The level of expressed mRNA in the presence of chemical substance/The level of expressed mRNA in the absence of chemical substance (yeast gene YLR250W) | The level of expressed mRNA in the presence of chemical substance/ (yeast gene YMR107W, ratio to control without chemical substance, 2 h culture)
1.6: The level of expressed mRNA in the presence of chemical substance/The level of expressed mRNA in the absence of chemical substance (yeast gene YMR226C) | The level of expressed mRNA in the presence of chemical substance/ (yeast gene YMR316W, ratio to control without chemical substance, 2 h culture)
0.9: The level of expressed mRNA in the presence of chemical substance/in the absence of chemical substance (yeast gene YKR009C) | The level of expressed mRNA in the presence of chemical substance/The level of expressed mRNA in the absence of chemical substance (yeast gene YLR120C) | The level of expressed mRNA in the presence of chemical substance/The level of expressed mRNA in the absence of chemical substance (yeast gene YLR178C) | The level of expressed mRNA in the presence of chemical substance/The level of expressed mRNA in the absence of chemical substance (yeast gene YMR104C)
0.7: The level of expressed mRNA in the presence of chemical substance/ (yeast gene YKL153W, ratio to control without chemical substance, 2 h culture) | The level of expressed mRNA in the presence of chemical substance/The level of expressed mRNA in the absence of chemical substance (yeast gene YLR356W) | The level of expressed mRNA in the presence of chemical substance/The level of expressed mRNA in the absence of chemical substance (yeast gene YLR391W) | The level of expressed mRNA in the presence of chemical substance/ (yeast gene YML117W, ratio to control without chemical substance, 2 h culture)
0.8: The level of expressed mRNA in the presence of chemical substance/The level of expressed mRNA in the absence of chemical substance (yeast gene YMR275C) | The level of expressed mRNA in the presence of chemical substance/The level of expressed mRNA in the absence of chemical substance (yeast gene YMR276W) | The level of expressed mRNA in the presence of chemical substance/The level of expressed mRNA in the absence of chemical substance (yeast gene YNL007C)
1.1: The level of expressed mRNA in the presence of chemical substance/ (yeast gene YKL086W, ratio to control without chemical) | The level of expressed mRNA in the presence of chemical substance/ (yeast gene YLR054C, ratio to control without chemical substance, 2 h culture) | The level of expressed mRNA in the presence of chemical substance/The level of expressed mRNA in the absence of chemical substance (yeast gene YLR136C) | The level of expressed mRNA in the presence of chemical substance/ (yeast gene YLR149C, ratio to control without chemical substance, 2 h culture) | The level of expressed mRNA in the presence of chemical substance/ (yeast gene YMR067C, ratio to control without chemical substance, 2 h culture) | The level of expressed mRNA in the presence of chemical substance/ (yeast gene YMR191W, ratio to control without chemical substance, 2 h culture) | The level of expressed mRNA in the presence of chemical substance/The level of expressed mRNA in the absence of chemical substance (yeast gene YMR219W) | The level of expressed mRNA in the presence of chemical substance/in the absence of chemical substance (yeast gene YMR278W) | The level of expressed mRNA in the presence of chemical substance/The level of expressed mRNA in the absence of chemical substance (yeast gene YNL006W)
1.2: The level of expressed mRNA in the presence of chemical substance/ (yeast gene YKL195W, ratio to control without chemical substance, 2 h culture) | The level of expressed mRNA in the presence of chemical substance/ (yeast gene YLR152C, ratio to control without chemical substance, 2 h culture) | The level of expressed mRNA in the presence of chemical substance/in the absence of chemical substance (yeast gene YLR351C) | The level of expressed mRNA in the presence of chemical substance/ (yeast gene YMR095C, ratio to control without chemical) | The level of expressed mRNA in the presence of chemical substance/The level of expressed mRNA in the absence of chemical substance (yeast gene YMR314W)
1.4: The level of expressed mRNA in the presence of chemical substance/The level of expressed mRNA in the absence of chemical substance (yeast gene YKL193C) | The level of expressed mRNA in the presence of chemical substance/The level of expressed mRNA in the absence of chemical substance (yeast gene YLR362W) | The level of expressed mRNA in the presence of chemical substance/ (yeast gene YLR387C, ratio to control without chemical substance, 2 h culture) | The level of expressed mRNA in the presence of chemical substance/ (yeast gene YMR009W, ratio to control without chemical substance, 2 h culture)
1.5: The level of expressed mRNA in the presence of chemical substance/The level of expressed mRNA in the absence of chemical substance (yeast gene YKL165C) | The level of expressed mRNA in the presence of chemical substance/ (yeast gene YMR097C, ratio to control without chemical substance, 2 h culture) | The level of expressed mRNA in the presence of chemical substance/in the absence of chemical substance (yeast gene YMR267W)
1.8: The level of expressed mRNA in the presence of chemical substance/ (yeast gene YMR180C, ratio to control without chemical substance, 2 h culture) | The level of expressed mRNA in the presence of chemical substance/ (yeast gene YNL044W, ratio to control without chemical substance, 2 h culture)
1.9: The level of expressed mRNA in the presence of chemical substance/ (yeast gene YMR184W, ratio to control without chemical substance, 2 h culture)

Source: US20050112573A1, “Method of detecting toxic substance” (priority 2001, published 2005)
